Results: ChEMBL document CHEMBL3045519, “Selective Herbicidal Activity of 3, 5-Dichloropyridyloxy-phenoxypropionamidoxyacetic Acid Derivatives between Wheat and Wild Oat” (J Pestic Sci, 1996)
Calls of active or inactive are those of the source. The calls are words filed in the database; no cut-off is given here.

Assays:
[1] = system: Avena fatua; assay: Post-emergence herbicidal activity against Avena fatua under greenhouse conditions at 40 g/a at 1.5-leaf stage measured after 3 weeks by pot test; type: functional, organism-based
[2] = system: Triticum aestivum; assay: Phytotoxicity against Triticum aestivum (wheat) under greenhouse conditions at 40 g/a at 1.5-leaf stage measured after 3 weeks by pot test; type: organism-based; conditions: in vivo, 504 h
[3] = system: Triticum aestivum; assay: Phytotoxicity against Triticum aestivum (wheat) under greenhouse conditions at 10 g/a at 1.5-leaf stage measured after 3 weeks by pot test; type: organism-based; conditions: in vivo, 504 h
[4] = system: Avena fatua; assay: Post-emergence herbicidal activity against Avena fatua under greenhouse conditions at 1.3 g/a at 1.5-leaf stage measured after 3 weeks by pot test; type: functional, organism-based
[5] = system: Avena fatua; assay: Post-emergence herbicidal activity against Avena fatua under greenhouse conditions at 5 g/a at 1.5-leaf stage measured after 3 weeks by pot test; type: functional, organism-based
[6] = system: Triticum aestivum; assay: Phytotoxicity against Triticum aestivum (wheat) under greenhouse conditions at 5 g/a at 1.5-leaf stage measured after 3 weeks by pot test; type: organism-based; conditions: in vivo, 504 h
[7] = system: Triticum aestivum; assay: Phytotoxicity against Triticum aestivum (wheat) under greenhouse conditions at 0.6 g/a at 1.5-leaf stage measured after 3 weeks by pot test; type: organism-based; conditions: in vivo, 504 h
[8] = system: Triticum aestivum; assay: Phytotoxicity against Triticum aestivum (wheat) under greenhouse conditions at 2.5 g/a at 1.5-leaf stage measured after 3 weeks by pot test; type: organism-based; conditions: in vivo, 504 h
[9] = system: Avena fatua; assay: Post-emergence herbicidal activity against Avena fatua under greenhouse conditions at 10 g/a at 1.5-leaf stage measured after 3 weeks by pot test; type: functional, organism-based
[10] = system: Avena fatua; assay: Post-emergence herbicidal activity against Avena fatua under greenhouse conditions at 0.6 g/a at 1.5-leaf stage measured after 3 weeks by pot test; type: functional, organism-based
[11] = system: Triticum aestivum; assay: Phytotoxicity against Triticum aestivum (wheat) under greenhouse conditions at 1.3 g/a at 1.5-leaf stage measured after 3 weeks by pot test; type: organism-based; conditions: in vivo, 504 h
[12] = system: Avena fatua; assay: Post-emergence herbicidal activity against Avena fatua under greenhouse conditions at 2.5 g/a at 1.5-leaf stage measured after 3 weeks by pot test; type: functional, organism-based
[13] = system: Triticum aestivum; assay: Phytotoxicity against Triticum aestivum (wheat) under greenhouse conditions at 0.3 g/a at 1.5-leaf stage measured after 3 weeks by pot test; type: organism-based; conditions: in vivo, 504 h
[14] = system: Avena fatua; assay: Post-emergence herbicidal activity against Avena fatua under greenhouse conditions at 0.3 g/a at 1.5-leaf stage measured after 3 weeks by pot test; type: functional, organism-based
[15] = system: Avena fatua; assay: Post-emergence herbicidal activity against Avena fatua under greenhouse conditions compound treated at 1.5-leaf stage measured after 3 weeks by pot test relative to diclofop-methyl; type: functional

Row | Compound | Activity [1] | Activity [2] | Activity [3] | Activity [4] | Activity [5] | Activity [6] | Activity [7] | Activity [8] | Activity [9] | Activity [10] | Activity [11] | Activity [12] | Activity [13] | Activity [14] | Ratio [15]
1 | CC(Oc1ccc(Oc2ncc(Cl)cc2Cl)cc1)C(=O)N(C)C (configuration not stated) | inactive | Non-toxic | – | – | – | – | – | – | – | – | – | – | – | – | –
2 | COC(=O)C(C)Oc1ccc(Oc2ccc(Cl)cc2Cl)cc1 (configuration not stated) [DICLOFOP-METHYL] | – | – | Non-toxic | inactive | Active | Non-toxic | Non-toxic | Non-toxic | Active | inactive | Non-toxic | Active | – | – | –
3 | CCNC(=O)CNC(=O)C(C)Oc1ccc(Oc2ncc(Cl)cc2Cl)cc1 (configuration not stated) | – | – | – | Active | Active | Non-toxic | Non-toxic | Non-toxic | – | Active | Non-toxic | Active | Non-toxic | Active | 2
4 | CC(Oc1ccc(Oc2ccc(Cl)cc2Cl)cc1)C(=O)NOCC(=O)O (configuration not stated) | inactive | Non-toxic | – | – | – | – | – | – | – | – | – | – | – | – | –
5 | CC(Oc1ccc(Oc2ncc(C(F)(F)F)cc2Cl)cc1)C(=O)O (configuration not stated) [HALOXYFOP] | – | – | – | Active | – | – | Toxic | Toxic | – | Active | Toxic | Active | Toxic | Active | –
6 | CC(Oc1ccc(Oc2ccc(Cl)cc2Cl)cc1)C(=O)O (configuration not stated) [DICLOFOP] | – | – | Non-toxic | Active | Active | Non-toxic | – | Non-toxic | Active | – | Non-toxic | Active | – | – | –
7 | CC(Oc1ccc(Oc2ncc(Cl)cc2Cl)cc1)C(=O)NCCC(=O)O (configuration not stated) | – | – | – | Active | – | – | Non-toxic | Non-toxic | – | inactive | Non-toxic | Active | Non-toxic | inactive | –
8 | CC(Oc1ccc(Oc2cnc3cc(Cl)ccc3n2)cc1)C(=O)O (configuration not stated) [QUIZALOFOP] | – | – | – | Active | – | – | Toxic | Toxic | – | Active | Toxic | Active | Toxic | Active | –
